Measurements from patent US20220184235A1, “NEAR-INFRARED FLUORESCENT PROBES FOR MOLECULAR IMAGING OF BONE REPAIR” (Taipeibio Co., Ltd., priority 2020, published 2022).
Bridges are numbered along the chain shown (N, C = ends). Where no end group is shown, it is not given here.

Legend:
[1] = NIR fluorescence emission spectra of the probes; format: physicochemical; settings: excitation of 777 nm
Method: Triethylamine (65.3 μL, 0.467 mmol) and 3-mercaptopropionic acid (40.7 μL, 0.467 mmol) were added to a solution of IR-783 (250 mg, 0.33 mmol) in 6 mL of anhydrous dimethylformamide (“DMF”). The resulting green solution was stirred in the dark at room temperature. The conversion reaction of IR783 to CyTE777 was complete after 21 h, as monitored by high-performance liquid chromatography (“HPLC”). A green solid was isolated through precipitation with ether at 4° C. and was washed with 3 mL cold ether. The precipitate was dissolved in water and dried under vacuum.
The augmented fluorescence intensity indicated completed conjugation.
Pamidronate (“PAM”) was attached to the carboxylate surface of nanoAu to form nanoAu-Pam directly or using a zero-length crosslinking agent, i.e., 1-ethyl-3-[3-dimethyl-aminopropyl] carbodiimide hydrochloride (“EDC”). Briefly, equal volumes of nanoAu (40 mM), pamidronate (3 mM), and EDC (80 mM) were mixed at room temperature for 2 h. To concentrate the nanoAu-Pam, the reaction was loaded on a 30 kDa molecular sieve (Amicon) and centrifuged at 3000 rpm for 10 min. The solution was centrifuged twice and washed with phosphate-buffered saline (“PBS”) to remove any unbound reactants. […] The fluorescence intensity of excitation spectra was recorded using an Edinburgh FL 900 CDT Time-Resolved Fluorometer (Edinburgh Analytical Instruments, Livingston, UK).

[2] = tested on: undifferentiated MSCs; experiment: Calcein staining of undifferentiated MSCs; format: cell-based
Method: (§1) Cells were also stained with calcein using a standard protocol to confirm calcium deposition in the culture. A 10x calcein/PBS staining solution was added to each well without medium change. The cells were incubated at 37° C., 5% CO2 overnight, washed twice with PBS, fixed with formaldehyde, and observed by fluorescence microscopy.

[3] = tested on: osteoblastic-differentiated MSC culture; experiment: Calcein staining for calcium deposition in osteogenically induced MSC culture; format: cell-based; settings: MSC culture after 21 days of osteogenic induction
Method: as §1, with “For osteogenic induction, MSCs were cultured in 24-well plates in DMEM/LG medium supplemented with 10% FBS, 100 units/mL penicillin, 100 μg/mL streptomycin, 50 μg/ml L-ascorbate-2-phosphate, 10^−7 M dexamethasone and 10 mM β-glycero-phosphate at 37° C., 5% CO2. Cells” for “Cells”

[4] = tested on: undifferentiated MSCs; experiment: Binding specificity of α5β1L-CyTE777 in undifferentiated MSCs, confocal microscopy; format: cell-based; settings: undifferentiated MSC
Method: (§2) To determine the binding specificity of α5β1L-CyTE777, undifferentiated MSCs or osteoblastic-induced MSCs were cultured in 24-well plates in DMEM/LG supplemented with 10% FBS. α5β1L-CyTE777 was applied to the cultures to detect binding to α5β1 . Cultures incubated with α5β1L-CyTE777 were washed with PBS twice and analyzed by confocal microscopy after staining nuclei with diamidinophenylindole (“DAPI”).

[5] = tested on: osteoblastic-induced MSCs (α5β1); experiment: Binding specificity of α5β1L-CyTE777 in osteoblastic-induced MSCs, confocal microscopy; format: cell-based; settings: osteoblastic-induced MSC
Method: as §2

[6] = statement on the purchased dye; cited from earlier work

Question: For `CC1(C)C(=CC=C2CCCC(C=CC3=[N+](CCCCS(=O)(=O)[O-])c4ccccc4C3(C)C)=C2SCCC(=O)O)N(CCCCS(=O)(=O)[O-])c2ccccc21.[Na+]` [CyTE777], which NIR emission peak [1] is on record?
Answer: Its NIR emission peak is 820 nm.

Question: Which “calcein staining (calcium deposition)” value [2] does the source give for `O=C(O)CN(CC(=O)O)Cc1cc2c(cc1O)Oc1cc(O)c(CN(CC(=O)O)CC(=O)O)cc1C21OC(=O)c2ccccc21` [calcein] here?
Answer: Its value is “No calcein staining”.

Question: And the “calcein staining (calcium deposition)” value [3]?
Answer: Its value is “positive staining”.

Question: Which NIR emission peak [1] does the source give for “α5β1L-CyTE777: CyTE777 conjugated to the N-terminal glycine NH2 of disulfide-cyclised peptide GGCRRETAWAC (SEQ ID NO: 1) (CyTE777-GGCRRETAWAC; disulfide 3-11 (inferred))” here?
Answer: The NIR emission peak was 820 nm.

Question: What about the “fluorescent signal of cells incubated with probe” value [4] of the same compound?
Answer: The value was “did not show any fluorescent signal”.

Question: And the “fluorescent signal of cells incubated with probe” value [5]?
Answer: Its value is “strong NIR fluorescence at 820 nm”.

Question: For `CC1(C)C(=CC=C2CCCC(C=CC3=[N+](CCCCS(=O)(=O)[O-])c4ccccc4C3(C)C)=C2Cl)N(CCCCS(=O)(=O)[O-])c2ccccc21.[Na+]` [IR783], which cell toxicity [6] is on record?
Answer: Its cell toxicity is “minimal cell toxicity”.
